Nine cell lines from the supplement of paper PMC10307832 can be followed below.

Experiment in all cases: relative viability (nuclei count vs DMSO), 5 days (fraction); higher = more cells survive
Compound in assay [1]: C[C@@H](C(=O)N[C@@H](C1CCCCC1)C(=O)N2CCC[C@H]2C(=O)N[C@@H]3[C@@H](CC4=CC=CC=C34)OCC#CC#CCO[C@@H]5CC6=CC=CC=C6[C@@H]5NC(=O)[C@@H]7CCCN7C(=O)[C@H](C8CCCCC8)NC(=O)[C@H](C)NC)NC [AZD5582]
An outline of the steps: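 Hoechst staining, done together with fixation and permeabilisation, marked nuclei for 4× imaging and MetaXpress counting. This followed 5 days without medium change after lung cancer cell lines, kept overnight at 37 °C in 1536-well plates, were pinned with five library-drug doses (not always all listed) spaced by √10 on vehicle-anchored plates. Viability is the ratio of treated-well to vehicle-well nuclei, expressed as a median across plates. Plates passed only at control CV below 25% with at least one doubling.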

Compound in assay [2]: C[C@@H](C(=O)N[C@@H](C1CCCCC1)C(=O)N2CCC[C@H]2C(=O)N[C@@H]3[C@@H](CC4=CC=CC=C34)OCC#CC#CCO[C@@H]5CC6=CC=CC=C6[C@@H]5NC(=O)[C@@H]7CCCN7C(=O)[C@H](C8CCCCC8)NC(=O)[C@H](C)NC)NC [AZD5582] + CC(C)C[C@H](NC(=O)[C@H](Cc1ccccc1)NC(=O)c1cnccn1)B(O)O [Bortezomib] (partner 0.002 µM)
An outline of the steps:
(§1)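 Relative viability divides the nuclei count in treated wells by that in vehicle wells. Lung cancer cell lines were seeded in 1536-well plates, dosed by pin tool the next day, and fixed and stained after 5 days in one step with final 0.05% Triton X-100, 1% formaldehyde and 1 ug/ml Hoechst. Dosing was a single drug or a fixed anchor-drug dose plus five library-drug doses (not always all listed) in √10 steps, and values are medians of duplicate plates imaged at 4×.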

Compound in assay [3]: C[C@@H](C(=O)N[C@@H](C1CCCCC1)C(=O)N2CCC[C@H]2C(=O)N[C@@H]3[C@@H](CC4=CC=CC=C34)OCC#CC#CCO[C@@H]5CC6=CC=CC=C6[C@@H]5NC(=O)[C@@H]7CCCN7C(=O)[C@H](C8CCCCC8)NC(=O)[C@H](C)NC)NC [AZD5582] + Nc1nc2[nH]cc(CCc3ccc(C(=O)N[C@@H](CCC(=O)O)C(=O)O)cc3)c2c(=O)[nH]1 [Pemetrexed] (partner 0.2 µM)
An outline of the steps: as §1

Compound in assay [4]: Cn1nnc2c(C(N)=O)ncn2c1=O [Temozolomide] + N=C(N)NC(=N)NCCc1ccccc1 [Phenformin] (partner 250 µM)
An outline of the steps: as §1

With EBC-1, the relative viability in assay [1] (0.001581 µM) stood at 0.867; in assay [1] (0.005 µM), 0.95; in assay [1] (0.01581 µM), 0.964; in assay [1] (0.05 µM) it was 0.948; in assay [2] (first compound 0.001581 µM), 0.434; in assay [2] (first compound 0.005 µM), 0.39. Also, the figures for the relative viability in assay [2] (first compound 0.01581 µM) and in assay [2] (first compound 0.05 µM) were 0.528 and 0.389, respectively.

Consider EKVX, for which the relative viability in assay [1] (0.001581 µM) was determined as 0.957; in assay [1] (0.005 µM), 1.13; in assay [1] (0.01581 µM), 0.794; in assay [1] (0.05 µM), 1.01; in assay [2] (first compound 0.001581 µM) it was 1.02; in assay [2] (first compound 0.005 µM) it was 1.02. Also, the relative viability in assay [2] (first compound 0.01581 µM) came out at 0.934; in assay [2] (first compound 0.05 µM) it was 0.575; in assay [3] (first compound 0.001581 µM) it was 0.382; in assay [3] (first compound 0.005 µM), 0.39; in assay [3] (first compound 0.01581 µM), 0.344; in assay [3] (first compound 0.05 µM), 0.375. Also, the relative viability is 0.185 in assay [4] (first compound 0.2 µM); 0.232 in assay [4] (first compound 0.6325 µM); 0.232 in assay [4] (first compound 2 µM); 0.236 in assay [4] (first compound 6.325 µM); 0.216 in assay [4] (first compound 20 µM).

For the cell line EMC-BAC-2, the relative viability was 0.835 in assay [1] (0.001581 µM); 0.993 in assay [1] (0.005 µM); 0.791 in assay [1] (0.01581 µM); 0.891 in assay [1] (0.05 µM); 1.01 in assay [2] (first compound 0.001581 µM); 1.04 in assay [2] (first compound 0.005 µM). Further, the relative viability in assay [2] (first compound 0.01581 µM) came out at 1.02; in assay [2] (first compound 0.05 µM), 0.354; in assay [3] (first compound 0.001581 µM), 0.417; in assay [3] (first compound 0.005 µM) it was 0.406; in assay [3] (first compound 0.01581 µM) it was 0.426; in assay [3] (first compound 0.05 µM) it was 0.46. Further, the relative viability in assay [4] (first compound 0.2 µM) was found to be 0.604; in assay [4] (first compound 0.6325 µM), 0.479; in assay [4] (first compound 2 µM), 0.586; in assay [4] (first compound 6.325 µM), 0.458; in assay [4] (first compound 20 µM), 0.564.

Consider EPLC-272H, for which the relative viability was found to be 0.263 in assay [1] (0.001581 µM); 0.55 in assay [1] (0.01581 µM); 0.116 in assay [1] (0.05 µM); 0.833 in assay [2] (first compound 0.001581 µM); 0.396 in assay [2] (first compound 0.005 µM); 0.87 in assay [2] (first compound 0.01581 µM). Further, the relative viability in assay [2] (first compound 0.05 µM) came out at 0.277; in assay [3] (first compound 0.01581 µM), 0.346; in assay [3] (first compound 0.05 µM), 0.104; in assay [4] (first compound 0.2 µM) it was 0.156; in assay [4] (first compound 0.6325 µM) it was 0.305; in assay [4] (first compound 2 µM) it was 0.332. For the same cell line, the relative viability in assay [4] (first compound 6.325 µM) came out at 0.461; in assay [4] (first compound 20 µM) it was 0.28.

Regarding H3255, the relative viability in assay [1] (0.001581 µM) was found to be 0.94; in assay [1] (0.005 µM), 1; in assay [1] (0.01581 µM), 0.862; in assay [1] (0.05 µM), 0.831; in assay [2] (first compound 0.001581 µM), 0.823; in assay [2] (first compound 0.005 µM) it was 0.879. Moreover, the relative viability turned out to be 0.385 in assay [2] (first compound 0.01581 µM); 0.552 in assay [2] (first compound 0.05 µM); 0.492 in assay [3] (first compound 0.001581 µM); 0.563 in assay [3] (first compound 0.005 µM); 0.512 in assay [3] (first compound 0.01581 µM); 0.573 in assay [3] (first compound 0.05 µM). For the same cell line, the relative viability in assay [4] (first compound 0.6325 µM) is 0.385; in assay [4] (first compound 2 µM), 0.344; in assay [4] (first compound 6.325 µM), 0.403; in assay [4] (first compound 20 µM), 0.185.

For the cell line HARA, the relative viability in assay [1] (0.001581 µM) was found to be 0.974; in assay [1] (0.005 µM) it was 1.1; in assay [1] (0.01581 µM) it was 0.746; in assay [1] (0.05 µM), 0.662; in assay [2] (first compound 0.001581 µM), 1.09; in assay [2] (first compound 0.005 µM) it was 1.11. The relative viability in assay [2] (first compound 0.01581 µM) is 1.06; in assay [2] (first compound 0.05 µM), 1.07; in assay [3] (first compound 0.001581 µM), 0.22; in assay [3] (first compound 0.005 µM), 0.213; in assay [3] (first compound 0.01581 µM), 0.214; in assay [3] (first compound 0.05 µM), 0.231. For the same cell line, the relative viability came to 0.446 in assay [4] (first compound 0.2 µM); 0.493 in assay [4] (first compound 0.6325 µM); 0.401 in assay [4] (first compound 2 µM); 0.414 in assay [4] (first compound 6.325 µM); 0.394 in assay [4] (first compound 20 µM).

With HCC-15, the relative viability was determined as 0.862 in assay [1] (0.001581 µM); 0.933 in assay [1] (0.005 µM); 0.739 in assay [1] (0.01581 µM); 0.847 in assay [1] (0.05 µM); 0.921 in assay [2] (first compound 0.001581 µM); 1.01 in assay [2] (first compound 0.005 µM). For the same cell line, the relative viability in assay [2] (first compound 0.01581 µM) is 0.864; in assay [2] (first compound 0.05 µM) it was 0.975; in assay [3] (first compound 0.001581 µM) it was 0.227; in assay [3] (first compound 0.005 µM), 0.197; in assay [3] (first compound 0.01581 µM), 0.218; in assay [3] (first compound 0.05 µM), 0.211. The relative viability in assay [4] (first compound 0.2 µM) was 0.502; in assay [4] (first compound 0.6325 µM), 0.531; in assay [4] (first compound 2 µM), 0.519; in assay [4] (first compound 6.325 µM), 0.418; in assay [4] (first compound 20 µM), 0.513.

For HCC-44, the relative viability in assay [1] (0.001581 µM) is 0.822; in assay [1] (0.005 µM) it was 0.724; in assay [1] (0.01581 µM), 0.872; in assay [1] (0.05 µM) it was 0.483; in assay [2] (first compound 0.001581 µM), 0.711; in assay [2] (first compound 0.005 µM), 0.722. The relative viability in assay [2] (first compound 0.01581 µM) stood at 0.918; in assay [2] (first compound 0.05 µM), 0.553; in assay [3] (first compound 0.001581 µM), 0.587; in assay [3] (first compound 0.005 µM), 0.615; in assay [3] (first compound 0.01581 µM) it was 0.614; in assay [3] (first compound 0.05 µM), 0.402. Also, the relative viability came to 0.194 in assay [4] (first compound 0.2 µM); 0.238 in assay [4] (first compound 0.6325 µM); 0.17 in assay [4] (first compound 2 µM); 0.185 in assay [4] (first compound 6.325 µM); 0.315 in assay [4] (first compound 20 µM).

As for HCC-78, the relative viability was 0.85 in assay [1] (0.001581 µM); 1.08 in assay [1] (0.005 µM); 0.834 in assay [1] (0.01581 µM); 0.746 in assay [1] (0.05 µM); 0.367 in assay [2] (first compound 0.001581 µM); 0.604 in assay [2] (first compound 0.005 µM). In addition, the relative viability turned out to be 0.421 in assay [2] (first compound 0.01581 µM); 0.479 in assay [2] (first compound 0.05 µM); 0.931 in assay [3] (first compound 0.001581 µM); 0.878 in assay [3] (first compound 0.005 µM); 0.901 in assay [3] (first compound 0.01581 µM); 0.949 in assay [3] (first compound 0.05 µM). In addition, the relative viability in assay [4] (first compound 0.2 µM) is 0.701; in assay [4] (first compound 0.6325 µM), 0.755; in assay [4] (first compound 2 µM), 0.713; in assay [4] (first compound 6.325 µM), 0.656; in assay [4] (first compound 20 µM) it was 0.751.
